According to PubChem BioAssay AID602308 (Southern Research Specialized Biocontainment Screening …, 2012):
pIC50: −log10 of the molar value. The source made the active and inactive calls. The rule behind the calls is not given here.

Biological target: Flavivirus NS5 methyltransferase / guanylyltransferase (capping enzyme)
Assay: flavivirus capping enzyme inhibitors, confirmation, biochemical (AID 602308)
Settings: Flavivirus NS5 capping enzyme biochemical inhibition assay

Row | pIC50 | SMILES
1 | 5.26 | O=C(O)CSc1cc(NS(=O)(=O)c2ccc(Cl)cc2)c2ccccc2c1O
2 | 5.16 | Cc1cc(C)c(S(=O)(=O)Nc2cc(SCC(=O)O)c(O)c3ccccc23)c(C)c1
3 | 5.18 | O=C(O)CSc1cc(NS(=O)(=O)c2cccc3cccnc23)c2ccccc2c1O
4 | 4.24 | Cn1c(=O)c2[nH]c(-c3ccc(Cl)cc3)c(O)c2n(C)c1=O
5 | 4.83 | O=[N+]([O-])c1cccc(S(=O)(=O)Nc2cc(SCc3ccccc3)c(O)c3ccccc23)c1
6 | 4.46 | O=[N+]([O-])c1cccc(S(=O)(=O)Nc2cc(Sc3nc4ccccc4s3)c(O)c3ccccc23)c1
7 | 5.42 | O=C(O)CSc1cc(NS(=O)(=O)c2cccc([N+](=O)[O-])c2)c2ccccc2c1O
8 | 5.20 | Cc1ccc(S(=O)(=O)Nc2cc(SCC(=O)O)c(O)c3ccccc23)cc1
9 | 4.45 | O=S(=O)(Nc1cc(Sc2ccccc2)c(O)c2ccccc12)c1ccc(F)cc1

The next lines start with the compound.

Row | SMILES | pIC50
10 | O=S(=O)(Nc1cc(SCc2ccccc2)c(O)c2ccccc12)c1ccc(Cl)cc1 | 4.36
11 | O=C(O)CSc1cc(NS(=O)(=O)c2ccc(Br)cc2)c2ccccc2c1O | 5.30
12 | O=S(=O)(Nc1cc(Sc2ncn[nH]2)c(O)c2ccccc12)c1ccc(F)cc1 | 4.99
13 | Cc1ccc(S(=O)(=O)Nc2cc(Sc3nc(C)cc(C)n3)c(O)c3ccccc23)cc1 | 4.08
14 | Cn1c(=O)c2[nH]c(-c3ccccc3)c(O)c2n(C)c1=O | 4.55
15 | O=S(=O)(Nc1cc(Cl)c(O)c2ccccc12)c1ccc(F)cc1 | 4.75
16 | Cc1cc(F)ccc1S(=O)(=O)Nc1cc(SCC(=O)O)c(O)c2ccccc12 | 5.25
17 | COc1ccc(OC)c(S(=O)(=O)Nc2cc(SCC(=O)O)c(O)c3ccccc23)c1 | 5.04
18 | O=C(O)CSc1cc(NS(=O)(=O)c2ccc(F)cc2)c2ccccc2c1O | 5.14

Same assay, conditions: Flavivirus NS5 capping enzyme biochemical inhibition assay; at 100 µM (top of the series)

Row | inhibition | SMILES
19 | inactive | Cc1ccc2nc(-c3ccccc3)cn2c1
20 | inactive | Cn1c(=O)c2[nH]c(-c3ccccc3)nc2n(C)c1=O
21 | inactive | Cn1c(=O)c2[nH]c(-c3cccc4ccccc34)c(O)c2n(C)c1=O
22 | inactive | CN(C)C(=O)c1ccc2nc(-c3ccccc3)cn2c1
23 | inactive | Cc1ccc(-c2cn3nc(C)c(C)nc3n2)cc1
24 | inactive | Clc1ccc2nc(-c3ccccc3)cn2c1
25 | inactive | Cc1nc2nc(-c3ccc(F)cc3)cn2nc1C
26 | inactive | Clc1ccc2nc(-c3cccs3)cn2c1

The next lines start with the compound.

Row | SMILES | inhibition
27 | Cc1nc2nc(-c3ccc(Cl)cc3)cn2nc1C | inactive
28 | Cn1c(=O)c2cnc(-c3ccccc3)nc2n(C)c1=O | inactive
29 | Cc1ccn2cc(-c3ccccc3)nc2c1 | inactive
30 | Cc1nc2nc(-c3ccccc3)cn2nc1C | inactive
